# According to PubChem BioAssay AID1388 (Sanford-Burnham Center for Chemical Genomics, 2008):
# Active and inactive are the calls of the source.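 The calls were made as follows: active = no detectable phosphorylated eIF2 alpha band on the immunoblot of stressed cell lysates; inactive = phospho eIF2 alpha band still visible on the blot.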
# Biological target: Eukaryotic translation initiation factor 2 subunit 1 (Rattus norvegicus) (UniProt P68101)
# Test: blockers of stress-induced eIF2α phosphorylation – cell-based, thapsigargin, Western blot, mechanism study for ER stress cell death project, late-stage follow-up (AID 1388)
# Details: CSM14.1 cells, phospho-eIF2a Western blot
# Eukaryotic translation initiation factor 2 subunit 1 (Rattus norvegicus), sequence (P68101 whole entry, looked up): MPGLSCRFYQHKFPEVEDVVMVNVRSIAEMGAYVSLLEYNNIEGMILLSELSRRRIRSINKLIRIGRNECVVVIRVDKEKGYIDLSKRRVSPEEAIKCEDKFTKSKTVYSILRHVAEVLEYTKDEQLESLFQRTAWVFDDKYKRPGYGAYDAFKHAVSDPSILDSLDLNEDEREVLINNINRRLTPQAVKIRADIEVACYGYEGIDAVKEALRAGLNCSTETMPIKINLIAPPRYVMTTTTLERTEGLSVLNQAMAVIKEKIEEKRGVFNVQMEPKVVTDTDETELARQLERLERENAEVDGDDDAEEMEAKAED
row,Compound,outcome
1,CCOc1cccc(C2Nc3ccccc3NC3=C2C(=O)CC(c2ccc(OC)cc2)C3)c1 (stereo unspecified),inactive
2,COc1ccc(C2CC(=O)C3=C(C2)Nc2ccccc2NC3c2cc(C)ccc2C)cc1 (stereo unspecified),inactive
3,CCOc1cc(C2Nc3ccccc3NC3=C2C(=O)CC(c2ccc(OC)cc2)C3)cc(Cl)c1O (stereo unspecified),inactive
4,COc1ccc(C2CC(=O)C3=C(C2)Nc2ccccc2NC3c2cccc(C(F)(F)F)c2)cc1OC (stereo unspecified),inactive
5,CSc1ccc(C2Nc3ccccc3NC3=C2C(=O)CC(c2ccccc2)C3)cc1 (stereo unspecified),inactive
6,O=C1CC(c2ccccc2)CC2=C1C(c1c(F)cccc1Cl)Nc1ccccc1N2 (stereo unspecified),inactive
7,COc1ccc(C2CC(=O)C3=C(C2)Nc2ccccc2NC3c2cccc(Oc3ccccc3)c2)cc1OC (stereo unspecified),inactive
8,COc1ccc(C2CC(=O)C3=C(C2)Nc2ccccc2NC3c2cccc(Br)c2)cc1OC (stereo unspecified),inactive
9,COc1ccc(C2CC(=O)C3=C(C2)Nc2ccccc2NC3c2ccccc2C(F)(F)F)cc1OC (stereo unspecified),inactive
10,CC1(C)CC(=O)C2=C(C1)Nc1ccccc1NC2c1ccc(-c2ccccc2)cc1 (stereo unspecified),inactive
11,CCCOc1ccc(C2Nc3ccccc3NC3=C2C(=O)CC(c2ccc(OC)c(OC)c2)C3)cc1 (stereo unspecified),inactive
